Experimental data from patent US12336989B2, “Transmucosal methods for treating psychiatric and neurological conditions” (INTRA-CELLULAR THERAPIES, INC., priority 2017, dated 2025).

Key:
[1] = Example 2: pharmacokinetics of oral dosing in dogs; type: in vivo, beagle dogs; conditions: sublingual and subcutaneous dosing at 1.0 mg/kg vs oral 15 mg/kg
Experimental: For control, the dogs are administered empty capsules. For the Compound of Formula I, the dogs are administered normal-release oral capsules. Blood samples are obtained at 0.25 hours, 0.5 hours, 1 hour, 4 hours, 8 hour and 24 hours. […] Cmax, Tmax and area-under-the-curve (AUC, 0-24 hours) are calculated using Phoenix WinNonlin software.

5-HT2C receptors = target: T1, 5-HT2C receptors (Homo sapiens, UniProt P28335); conditions: cited from earlier work
T1 sequence (P28335 33-458): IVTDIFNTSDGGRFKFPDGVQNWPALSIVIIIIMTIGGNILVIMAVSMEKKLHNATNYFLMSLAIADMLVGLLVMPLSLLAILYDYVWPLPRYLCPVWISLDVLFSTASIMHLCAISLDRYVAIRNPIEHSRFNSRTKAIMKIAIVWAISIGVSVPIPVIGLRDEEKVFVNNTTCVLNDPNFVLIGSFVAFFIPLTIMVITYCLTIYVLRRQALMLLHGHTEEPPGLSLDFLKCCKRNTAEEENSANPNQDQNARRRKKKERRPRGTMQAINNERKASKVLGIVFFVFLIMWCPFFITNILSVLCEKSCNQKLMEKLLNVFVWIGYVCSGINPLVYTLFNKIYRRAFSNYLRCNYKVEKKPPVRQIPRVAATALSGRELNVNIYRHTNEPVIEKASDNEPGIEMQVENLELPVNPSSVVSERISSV

muscarinic receptors = conditions: cited from earlier work
[2] = target: H1 histaminergic receptors (Homo sapiens, UniProt P35367); conditions: cited from earlier work
Chain of H1 histaminergic receptors (P35367 whole entry): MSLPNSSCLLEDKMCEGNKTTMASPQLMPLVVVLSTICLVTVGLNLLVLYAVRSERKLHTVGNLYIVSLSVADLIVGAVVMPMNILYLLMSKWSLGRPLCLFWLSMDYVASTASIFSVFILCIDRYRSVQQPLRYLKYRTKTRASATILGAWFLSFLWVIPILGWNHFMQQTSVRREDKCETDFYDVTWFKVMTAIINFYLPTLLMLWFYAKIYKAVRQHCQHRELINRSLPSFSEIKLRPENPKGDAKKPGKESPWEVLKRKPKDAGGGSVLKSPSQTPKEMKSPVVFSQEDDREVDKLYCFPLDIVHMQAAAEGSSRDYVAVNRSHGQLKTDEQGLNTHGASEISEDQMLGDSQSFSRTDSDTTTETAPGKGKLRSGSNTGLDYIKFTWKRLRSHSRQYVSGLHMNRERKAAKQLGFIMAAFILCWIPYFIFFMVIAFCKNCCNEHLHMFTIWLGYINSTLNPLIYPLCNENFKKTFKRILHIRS

SMILES: CN1CCN2c3c(cccc31)[C@@H]1CN(CCCC(=O)c3ccc(F)cc3)CC[C@@H]12 [Compound of Formula I, 1-(4-fluoro-phenyl)-4-((6bR,10aS)-3-methyl-2,3,6b,9,10,10a-hexahydro-1H,7H-pyrido[3′,4′:4,5]pyrrolo[1,2,3-de]quinoxalin-8-yl)-butan-1-one]
- 24-hour AUC, times higher than oral dosing at 15 mg/kg [1]: about three
- binding to 5-HT2C receptors (5-HT2C receptors): negligible binding
- binding to muscarinic receptors (muscarinic receptors): negligible binding
- binding to H1 histaminergic receptors [2]: negligible binding
